Test results from the supplement of paper PMC5908809.

What was measured:
[1] = test system: DERL-7 (IL-2 2.5 ng/mL); experiment: percent inhibition of viability; higher = more inhibition; settings: 72 h
[2] = test system: normal primary NK cells, pool 1 (3 donors), resting (IL-2 0 ng/mL); experiment: as above; settings: 72 h
[3] = test system: KHYG-1 (IL-2 2.5 ng/mL); experiment: as above; settings: 72 h
[4] = test system: normal primary NK cells, pool 2 (3 donors) (IL-2 2.5 ng/mL); experiment: as above; settings: 72 h
[5] = test system: normal primary NK cells, pool 3 (3 donors) (IL-2 2.5 ng/mL); experiment: as above; settings: 72 h
[6] = test system: NKL (IL-2 2.5 ng/mL); experiment: as above; settings: 72 h
[7] = test system: KAI3 (IL-2 2.5 ng/mL); experiment: as above; settings: 72 h
[8] = test system: normal primary NK cells, pool 1 (3 donors) (IL-2 2.5 ng/mL); experiment: as above; settings: 72 h
[9] = test system: SNK-6 (IL-2 2.5 ng/mL); experiment: as above; settings: 72 h
[10] = test system: NK-92 (IL-2 2.5 ng/mL); experiment: as above; settings: 72 h
[11] = test system: NK-YS (IL-2 2.5 ng/mL); experiment: as above; settings: 72 h
[12] = test system: YT (IL-2 2.5 ng/mL); experiment: as above; settings: 72 h
[13] = test system: IMC-1 (IL-2 20 ng/mL); experiment: as above; settings: 72 h
[14] = test system: DERL-7 (IL-2 2.5 ng/mL); experiment: drug sensitivity score (DSS) (DSS units); higher = more sensitive; extreme values may be limits of the assay; settings: 72 h
[15] = test system: normal primary NK cells, pool 1 (3 donors), resting (IL-2 0 ng/mL); experiment: as above; settings: 72 h
[16] = test system: KHYG-1 (IL-2 2.5 ng/mL); experiment: as above; settings: 72 h
[17] = test system: normal primary NK cells, pool 2 (3 donors) (IL-2 2.5 ng/mL); experiment: as above; settings: 72 h
[18] = test system: normal primary NK cells, pool 3 (3 donors) (IL-2 2.5 ng/mL); experiment: as above; settings: 72 h
[19] = test system: NKL (IL-2 2.5 ng/mL); experiment: as above; settings: 72 h
[20] = test system: KAI3 (IL-2 2.5 ng/mL); experiment: as above; settings: 72 h
[21] = test system: normal primary NK cells, pool 1 (3 donors) (IL-2 2.5 ng/mL); experiment: as above; settings: 72 h
[22] = test system: SNK-6 (IL-2 2.5 ng/mL); experiment: as above; settings: 72 h
[23] = test system: NK-92 (IL-2 2.5 ng/mL); experiment: as above; settings: 72 h
[24] = test system: NK-YS (IL-2 2.5 ng/mL); experiment: as above; settings: 72 h
[25] = test system: YT (IL-2 2.5 ng/mL); experiment: as above; settings: 72 h
[26] = test system: IMC-1 (IL-2 20 ng/mL); experiment: as above; settings: 72 h
[27] = test system: normal NK cells expanded with K562-aAPC; experiment: as above; settings: 72 h; IL-2 2.5 ng/mL
Protocol: (§1)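 Drug sensitivity and resistance testing on K562-aAPC-expanded normal NK cells: 5 concentrations (10-fold steps over a 10,000-fold range), 72 h at 37 °C, viability by CellTiter-Glo normalised to DMSO and benzethonium chloride controls; DSS from the fitted curve.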

[28] = test system: normal NK cells expanded with K562-aAPC; experiment: percent inhibition of viability; higher = more inhibition; settings: 72 h, IL-2 2.5 ng/mL
Protocol: as §1

Cc1nc(Nc2ncc(C(=O)Nc3c(C)cccc3Cl)s2)cc(N2CCN(CCO)CC2)n1 [Dasatinib] (max concentration tested 1000 nM)
percent inhibition of viability [%]
Settings | 0.1 nM | 1 nM | 10 nM | 100 nM | 1000 nM
[1] | 2.24 | 8.32 | 14.1 | 5.36 | 23.2
[2] | -8.65 | 23.5 | 15.4 | 12.1 | 3.61
[3] | -4.78 | -5.41 | 2.42 | 4.68 | 15
[4] | -3.84 | 18.3 | 1.6 | 0.44 | 6.62
[5] | 0.39 | 14.8 | -5.88 | -19.1 | -19.4
[6] | -6.62 | -1.79 | 12 | 30.8 | 50.2
[7] | -0.36 | 1.21 | 4.62 | 14.5 | 34
[8] | -0.11 | 19.3 | 13.1 | 15.4 | 19.5
[9] | 26.1 | -6.71 | -10.2 | 3.42 | 33.2
[10] | -15.2 | -20 | -16.4 | -1 | 22.6
[11] | -0.77 | -3.69 | 1.85 | 9.09 | 26.2
[12] | -6.9 | -3.71 | 0.56 | 23 | 39.6
[13] | -4.24 | -3.41 | -7.41 | -6.36 | 8.01
[28] | -0.95 | 4.04 | 19.2 | 3.69 | 18.7

Settings | drug sensitivity score
[14] | 1.68
[15] | 0
[16] | 0.45
[17] | 0
[18] | 0
[19] | 6.85
[20] | 2.92
[21] | 6.61
[22] | 2.07
[23] | 0.7
[24] | 2.02
[25] | 4.71
[26] | 0
[27] | 1.3

O=C1c2c(O)ccc(O)c2C(=O)c2c(NCCNCCO)ccc(NCCNCCO)c21 [Mitoxantrone] (max concentration tested 1000 nM)
percent inhibition of viability [%]
Settings | 0.1 nM | 1 nM | 10 nM | 100 nM | 1000 nM
[1] | -0.69 | -3.99 | 7.25 | 45.4 | 81.1
[2] | -14 | -28.2 | -16.5 | 24.1 | 91.4
[3] | -1.32 | 3.99 | 7.39 | 17.7 | 72.5
[4] | -14.3 | -3.15 | 3.94 | 9.38 | 53.6
[5] | -18.6 | -1.63 | -2.35 | -0.69 | 45.1
[6] | -8.85 | 3.32 | 12 | 87 | 107
[7] | -18.6 | -16.5 | -1.68 | 41.7 | 74.6
[8] | 1.11 | -8.14 | 0.77 | -0.51 | 58.9
[9] | 15 | 22.1 | 31.1 | 20.5 | 73.1
[10] | -10.5 | -26.1 | -3.86 | 11.4 | 45.4
[11] | -6.35 | -2.16 | 9.79 | 37.1 | 85.1
[12] | -1.6 | 4.64 | 3.75 | -0.47 | 32.4
[13] | -4.49 | -5.12 | 2.6 | 19.3 | 92.1
[28] | 1.76 | 1.15 | 1.38 | 19 | 62

Settings | drug sensitivity score
[14] | 10
[15] | 8.71
[16] | 6.72
[17] | 4.44
[18] | 2.25
[19] | 17.5
[20] | 9.23
[21] | 3.14
[22] | 12.2
[23] | 4.12
[24] | 8.97
[25] | 1.43
[26] | 8.2
[27] | 6.19

Cc1c(NC(=O)OC[C@@H]2COCCN2)cn2ncnc(Nc3ccc4c(cnn4Cc4cccc(F)c4)c3)c12 (max concentration tested 10000 nM)
percent inhibition of viability [%]
Settings | 1 nM | 10 nM | 100 nM | 1000 nM | 10000 nM
[1] | -2.53 | -0.41 | -0.2 | 2.93 | 52.5
[2] | 4.93 | -4.06 | 4.13 | -12.6 | 58.4
[3] | 4.55 | 7.44 | 7.32 | 8.8 | 77.5
[4] | -13 | -2.17 | -2.11 | 0.64 | 57.2
[5] | -5.86 | 2.09 | 3.41 | -2.09 | 44
[6] | -10.7 | 1.23 | -8.56 | 0.45 | 55.9
[7] | 1.51 | 4.45 | 5.56 | -0.23 | 65.3
[8] | 1.48 | -6.08 | -9.4 | -15 | 34.3
[9] | -6.28 | -7.55 | -9.76 | -27.8 | 33.1
[10] | -5.71 | -0.55 | 7.56 | 7.66 | 105
[11] | 1.47 | 0.48 | 3.03 | 2.38 | 38.8
[12] | 2.59 | 1.59 | 4.74 | 2.33 | 47.5
[13] | -5.26 | -0.97 | 0.8 | 4.51 | 43.6
[28] | 6.16 | 1.61 | -2.01 | 5.74 | 30.1

Settings | drug sensitivity score
[14] | 3.21
[15] | 2.48
[16] | 5.75
[17] | 3.16
[18] | 2.07
[19] | 3.06
[20] | 3.56
[21] | 1.06
[22] | 0.86
[23] | 7.04
[24] | 2.25
[25] | 2.8
[26] | 2.97
[27] | 2.22

COc1ccccc1S(=O)(=O)Nc1ccc2c(c1)CN(C)C(=O)N2 [PFI-1] (max concentration tested 10000 nM)
percent inhibition of viability [%]
Settings | 1 nM | 10 nM | 100 nM | 1000 nM | 10000 nM
[1] | -2.29 | 2.86 | 9.32 | 41.8 | 91.8
[2] | -7.18 | 7.82 | -0.65 | -5.17 | 29.6
[3] | -2.18 | -2.43 | -0.21 | 19.9 | 89.2
[4] | -9.32 | -3.5 | -1.83 | 9.71 | 50.9
[5] | -2.26 | -5.87 | 0.68 | 4.06 | 32.9
[6] | -16 | -14.6 | -8.15 | 32 | 70.4
[7] | -2.2 | 1.8 | -7.46 | 5.35 | 48
[8] | 1.67 | -1.14 | -0.56 | 0.29 | 39.4
[9] | -3.16 | -6.59 | 7.82 | 7.89 | 48.9
[10] | -6.34 | 6.35 | -0.51 | -18.3 | 14.6
[11] | -6.14 | -3.35 | 2.77 | 24.8 | 70
[12] | 1.99 | 0.44 | -0.45 | 5.52 | 53.1
[13] | -2.65 | -6.11 | -1.36 | 1.44 | 52.3
[28] | 1.38 | -2.34 | 0.83 | 10.4 | 45.7

Settings | drug sensitivity score
[14] | 9.94
[15] | 0.99
[16] | 8.09
[17] | 4.3
[18] | 2.17
[19] | 8.04
[20] | 3.39
[21] | 1.98
[22] | 3.9
[23] | 0.06
[24] | 7.15
[25] | 3.74
[26] | 2.96
[27] | 4.03

CNNCc1ccc(C(=O)NC(C)C)cc1 [Procarbazine] (max concentration tested 10000 nM)
percent inhibition of viability [%]
Settings | 1 nM | 10 nM | 100 nM | 1000 nM | 10000 nM
[1] | -5.96 | -2.97 | -1.35 | -4.02 | -1.33
[2] | -10.9 | -14.4 | -17.2 | 1.81 | -7.55
[3] | -6.92 | -2.1 | -5.13 | -6.74 | -9.22
[4] | -13.7 | -3.7 | -4.8 | -10 | -2.4
[5] | -11.8 | -5.14 | -5.98 | -4.43 | -4
[6] | -15.8 | -21.9 | -20.6 | -22.9 | -16.7
[7] | -11.1 | -15.3 | -9.69 | -2.54 | -7.53
[8] | -3.19 | -6.37 | -6.53 | -1.7 | -5.09
[9] | -3.98 | 12.4 | 2.31 | 3.29 | -21.5
[10] | -19 | -5.13 | -2.68 | -0.23 | -12.9
[11] | -8.8 | -5.02 | -3.78 | -7.11 | -5.77
[12] | -8.77 | -3.75 | -6.96 | -5.83 | -8.88
[13] | -5.39 | -4.18 | -3.85 | -5.41 | -5.74
[28] | -2.09 | -5.44 | -0.68 | -4.82 | -4.8

Settings | drug sensitivity score
[14] | 0
[15] | 0
[16] | 0
[17] | 0
[18] | 0
[19] | 0
[20] | 0
[21] | 0
[22] | 0
[23] | 0
[24] | 0
[25] | 0
[26] | 0
[27] | 0
